Values quoted from earlier work, collected in patent EP4620459A1, “METFORMIN HYDROCHLORIDE ENTERIC-COATED TABLET” (Yayan (Tianjin) Biomedical Technology Center (Limited …, priority 2023, dated 2025).

Conditions: nausea, abdominal pain, abdominal discomfort, etc.

CN(C)C(=N)N=C(N)N [metformin]
incidence of gastrointestinal adverse reactions: 20-30%
